In PubChem BioAssay (NCI):
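Here, GI50 denotes the concentration required for 50% inhibition of growth. At the TGI there is no net growth.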

Experiments:
Assay in all cases: DTP human tumour cell line panel, 384-well format
[1] = test system: ACHN renal
[2] = test system: NCI-H322M lung
[3] = test system: TK-10 renal
[4] = test system: OVCAR-8 ovarian
[5] = test system: NCI-H226 lung
[6] = test system: MDA-MB-468 breast
[7] = test system: MDA-MB-435 melanoma
[8] = test system: SNB-75 CNS
[9] = test system: SW-620 colon
[10] = test system: 786-0 renal
[11] = test system: NCI/ADR-RES ovarian
[12] = test system: HL-60(TB) leukemia
[13] = test system: SK-MEL-28 melanoma
[14] = test system: PC-3 prostate
[15] = test system: MCF7 breast
[16] = test system: NCI-H23 lung
[17] = test system: A498 renal
[18] = test system: M14 melanoma
[19] = test system: RPMI-8226 leukemia
[20] = test system: UO-31 renal
[21] = test system: NCI-H460 NSCLC
[22] = test system: SF-295 CNS
[23] = test system: SF-268 CNS
[24] = test system: HT29 colon
[25] = test system: SK-OV-3 ovarian
[26] = test system: SF-539 CNS
[27] = test system: HOP-92 NSCLC
[28] = test system: NCI-H522 lung
[29] = test system: K-562 leukemia
[30] = test system: DU-145 prostate
[31] = test system: HCC-2998 colon
[32] = test system: EKVX NSCLC
[33] = test system: HOP-62 NSCLC
[34] = test system: SNB-19 CNS
[35] = test system: MALME-3M melanoma
[36] = test system: KM12 colon
[37] = test system: SK-MEL-5 melanoma
[38] = test system: MDA-MB-231 breast
[39] = test system: COLO 205 colon
[40] = test system: HS 578T breast
[41] = test system: BT-549 breast
[42] = test system: T-47D breast
[43] = test system: RXF 393 renal
[44] = test system: IGROV1 ovarian
[45] = test system: SN12C renal
[46] = test system: CAKI-1 renal
[47] = test system: LOX IMVI melanoma
[48] = test system: UACC-257 melanoma
[49] = test system: MOLT-4 leukemia
[50] = test system: CCRF-CEM leukemia
[51] = test system: UACC-62 melanoma
[52] = test system: HCT-15 colon
[53] = test system: HCT-116 colon
[54] = test system: SR leukemia
[55] = test system: OVCAR-3 ovarian
[56] = test system: OVCAR-4 ovarian
[57] = test system: U251 glioblastoma
[58] = test system: A549 NSCLC

For `CS(=O)(=O)N1CCc2c(-c3cnc(N)nc3)nc(N3CCOCC3)nc21`, which GI50 [1] is on record?
The GI50 was 0.719 µM.

And the TGI [1]?
Its TGI is 15.9 µM.

And the GI50 [2]?
The GI50 was 0.426 µM.

And the TGI [2]?
Its TGI is 9.38 µM.

And the GI50 [3]?
The GI50 was 0.421 µM.

And the TGI [3]?
Its TGI is 4.97 µM.

What about the GI50 [4] of the same molecule?
The GI50 was 1.01 µM.

And the TGI [4]?
The TGI was greater than 100 µM.

And the GI50 [5]?
Its GI50 is 0.38 µM.

And the TGI [5]?
The TGI was 3.94 µM.

And the GI50 [6]?
The GI50 was 0.391 µM.

What about the TGI [6] of the same molecule?
The TGI was 2.32 µM.

And the GI50 [7]?
Its GI50 is 1.49 µM.

And the TGI [7]?
The TGI was 94.5 µM.

And the GI50 [8]?
The GI50 was 0.391 µM.

And the TGI [8]?
The TGI was 3.6 µM.

What about the GI50 [9] of the same molecule?
The GI50 was 2.64 µM.

What about the TGI [9] of the same molecule?
Its TGI is greater than 100 µM.

And the GI50 [10]?
Its GI50 is 1.71 µM.

And the TGI [10]?
The TGI was 17.8 µM.

And the GI50 [11]?
Its GI50 is 2.6 µM.

And the TGI [11]?
The TGI was greater than 100 µM.

And the GI50 [12]?
The GI50 was 0.192 µM.

What about the TGI [12] of the same molecule?
Its TGI is greater than 100 µM.

And the GI50 [13]?
The GI50 was 0.673 µM.

What about the TGI [13] of the same molecule?
Its TGI is 8.52 µM.

And the GI50 [14]?
The GI50 was 0.34 µM.

And the TGI [14]?
Its TGI is 4.45 µM.

And the GI50 [15]?
Its GI50 is 0.0473 µM.

And the TGI [15]?
Its TGI is greater than 100 µM.

What about the GI50 [16] of the same molecule?
The GI50 was 0.826 µM.

And the TGI [16]?
Its TGI is greater than 100 µM.

What about the GI50 [17] of the same molecule?
Its GI50 is 0.428 µM.

And the TGI [17]?
The TGI was 2.73 µM.

And the GI50 [18]?
The GI50 was 0.932 µM.

And the TGI [18]?
The TGI was greater than 100 µM.

And the GI50 [19]?
Its GI50 is 0.461 µM.

And the TGI [19]?
The TGI was 2.47 µM.

What about the GI50 [20] of the same molecule?
Its GI50 is 0.489 µM.

What about the TGI [20] of the same molecule?
Its TGI is 7.6 µM.

And the GI50 [21]?
The GI50 was 0.256 µM.

And the TGI [21]?
The TGI was 31.3 µM.

And the GI50 [22]?
Its GI50 is 0.537 µM.

And the TGI [22]?
The TGI was 2.99 µM.

What about the GI50 [23] of the same molecule?
The GI50 was 1.7 µM.

What about the TGI [23] of the same molecule?
The TGI was greater than 100 µM.

And the GI50 [24]?
The GI50 was 0.334 µM.

What about the TGI [24] of the same molecule?
Its TGI is greater than 100 µM.

And the GI50 [25]?
The GI50 was 0.17 µM.

What about the TGI [25] of the same molecule?
The TGI was 1.36 µM.

What about the GI50 [26] of the same molecule?
The GI50 was 1.12 µM.

And the TGI [26]?
Its TGI is 14.1 µM.

And the GI50 [27]?
The GI50 was 0.248 µM.

What about the TGI [27] of the same molecule?
The TGI was 2.59 µM.

What about the GI50 [28] of the same molecule?
Its GI50 is 0.71 µM.

And the TGI [28]?
Its TGI is greater than 100 µM.

And the GI50 [29]?
The GI50 was 3.65 µM.

And the TGI [29]?
Its TGI is greater than 100 µM.

What about the GI50 [30] of the same molecule?
Its GI50 is 0.661 µM.

What about the TGI [30] of the same molecule?
The TGI was 8.57 µM.

What about the GI50 [31] of the same molecule?
The GI50 was 1.42 µM.

What about the TGI [31] of the same molecule?
Its TGI is greater than 100 µM.

What about the GI50 [32] of the same molecule?
Its GI50 is 0.411 µM.

And the TGI [32]?
Its TGI is 3.83 µM.

And the GI50 [33]?
Its GI50 is 1.34 µM.

And the TGI [33]?
Its TGI is greater than 100 µM.

And the GI50 [34]?
The GI50 was 5.41 µM.

And the TGI [34]?
Its TGI is greater than 100 µM.

What about the GI50 [35] of the same molecule?
Its GI50 is 0.281 µM.

What about the TGI [35] of the same molecule?
Its TGI is 2.18 µM.

And the GI50 [36]?
Its GI50 is 2.23 µM.

And the TGI [36]?
The TGI was greater than 100 µM.

What about the GI50 [37] of the same molecule?
Its GI50 is 1.23 µM.

What about the TGI [37] of the same molecule?
The TGI was 7.9 µM.

What about the GI50 [38] of the same molecule?
The GI50 was 0.9 µM.

And the TGI [38]?
Its TGI is greater than 100 µM.

What about the GI50 [39] of the same molecule?
Its GI50 is 0.477 µM.

And the TGI [39]?
Its TGI is greater than 100 µM.

What about the GI50 [40] of the same molecule?
The GI50 was 0.465 µM.

What about the TGI [40] of the same molecule?
The TGI was 3 µM.

What about the GI50 [41] of the same molecule?
The GI50 was 1.05 µM.

And the TGI [41]?
Its TGI is 5.67 µM.

And the GI50 [42]?
The GI50 was 0.0317 µM.

And the TGI [42]?
Its TGI is 0.396 µM.

And the GI50 [43]?
Its GI50 is 1.16 µM.

What about the TGI [43] of the same molecule?
The TGI was 4.97 µM.

And the GI50 [44]?
Its GI50 is 0.123 µM.

And the TGI [44]?
Its TGI is 0.568 µM.

And the GI50 [45]?
The GI50 was 0.433 µM.

What about the TGI [45] of the same molecule?
The TGI was 5.54 µM.

And the GI50 [46]?
Its GI50 is 0.335 µM.

What about the TGI [46] of the same molecule?
Its TGI is 3.51 µM.

And the GI50 [47]?
The GI50 was 1.01 µM.

And the TGI [47]?
The TGI was 28.4 µM.

What about the GI50 [48] of the same molecule?
The GI50 was 2.12 µM.

And the TGI [48]?
The TGI was greater than 100 µM.

What about the GI50 [49] of the same molecule?
The GI50 was 0.252 µM.

What about the TGI [49] of the same molecule?
Its TGI is 1.55 µM.

What about the GI50 [50] of the same molecule?
Its GI50 is 0.722 µM.

What about the TGI [50] of the same molecule?
The TGI was 30.4 µM.

What about the GI50 [51] of the same molecule?
Its GI50 is 0.739 µM.

And the TGI [51]?
Its TGI is 4.09 µM.

What about the GI50 [52] of the same molecule?
The GI50 was 0.445 µM.

And the TGI [52]?
The TGI was greater than 100 µM.

And the GI50 [53]?
The GI50 was 1.06 µM.

And the TGI [53]?
Its TGI is greater than 100 µM.

What about the GI50 [54] of the same molecule?
The GI50 was 0.116 µM.

What about the TGI [54] of the same molecule?
The TGI was 0.551 µM.

What about the GI50 [55] of the same molecule?
The GI50 was 0.752 µM.

What about the TGI [55] of the same molecule?
The TGI was 6.66 µM.

And the GI50 [56]?
Its GI50 is 1.65 µM.

What about the TGI [56] of the same molecule?
The TGI was 7.87 µM.

And the GI50 [57]?
The GI50 was 2.64 µM.

And the TGI [57]?
The TGI was greater than 100 µM.

What about the GI50 [58] of the same molecule?
The GI50 was 0.806 µM.

What about the TGI [58] of the same molecule?
The TGI was 16.9 µM.
